Source: US12486301B2, “8-fluoro-4-alkylumbelliferyl α-D-glucopyranoside, biological sterilization indicator including the same and its use in a method of determining efficacy of a sterilization process” (Solventum Intellectual Properties Company, priority 2019, dated 2025)

How the values were obtained:
[1] = Enzyme substrate degradation in culture media at various temperatures (fluorescence); format: physicochemical; conditions: 0.3 mg/mL; for MEASURED FLUORESCENCE, RFU 70° C. 15 min: 70° C. dry heat block 15 min; for MEASURED FLUORESCENCE, RFU 100° C. 15 + 15 min: 100° C. 15 min, second time 15 min; for MEASURED FLUORESCENCE, RFU 100° C. 15 min: 100° C. heat block 15 min; for MEASURED FLUORESCENCE, RFU RT 15 min: room temperature (24.5° C.)
Description: Culture media was prepared by dissolving 5 g/L peptone C (BD 211921) and 12 g/L phytone peptone (BD BBL 211906) in deionized water. The pH was adjusted with 1 N NaOH or 0.1 N HCl, the media brought to volume, and then filter sterilized with a 0.22 micron PES filter. Stock solutions ([…]) of 8′-fluoro-4′-methylumbelliferyl-α-D-glucopyranoside, 6′-fluoro-4′-methylumbelliferyl-α-D-glucopyranoside, and 4-methylumbelliferyl-α-D-glucopyranoside were prepared in DMSO. The aforementioned substrates were added to culture media at a final concentration of 0.1 mg/ml and media were then 0.22 μm filter sterilized.
(§1) One milliliter of filter-sterilized culture media (pH 6) containing 0.3 mg/ml of 8′-fluoro-4′-methylumbelliferyl-[…]-D-glucopyranoside substrate was transferred to three 1.5 ml microcentrifuge tubes. One of the 1.5 ml tubes was kept at room temperature (24.5° C.). The second tube was placed in a 70° C. dry heat block for 15 min and the third tube was placed in a 100° C. heat block for 15 min. Tubes were kept at room temperature for 30 min following heat exposure, briefly vortexed and centrifuged to collect liquid. One hundred microliters of culture media with substrate from each of the tubes was transferred to two wells (100 microliters per well) of a black 96-well microtiter plate with (NUNC #165301, Thermo Fisher Scientific). The top of the plate was covered with an optically clear sealing film (product #4311971, Applied Biosystems Corporation). Fluorescence readings (360 nm excitation/455 nm emission at 50% gain) were taken from the top of the plate.
(§2) The tube exposed to 100° C. (with 800 ul of remaining media with substrate) was exposed for a second time to 100° C. for 15 min in a dry heat block. One hundred microliters of culture media with substrate from the tube was transferred to two wells (100 microliters per well) of a black 96-well microtiter plate with (NUNC #165301, Thermo Fisher Scientific). The top of the plate was covered with an optically clear sealing film (product #4311971, Applied Biosystems Corporation). Fluorescence readings (360 nm excitation/455 nm emission at 50% gain) were taken from the top of the plate. In Table 9, the mean fluorescence values detected (RFU) for each of the heating conditions are reported.
as §1, with “7)” for “6)”
as §2, with “10,” for “9,”, “reported. […]” for “reported.”

[2] = test system: Geobacillus stearothermophilus spores (ATCC 7953); assay: Fluorescence from enzyme substrates incubated with Geobacillus stearothermophilus spores in culture media; format: cell-based; conditions: substrate 0.1 mg/mL, 60° C.
[3] = pH 6 culture media, 5×10^3 spores
[4] = pH 6 culture media, 5×10^6 spores
[5] = pH 7 culture media, 5×10^6 spores
[6] = pH 8 culture media, 5×10^3 spores
[7] = pH 8 culture media, 5×10^6 spores
[8] = pH 9 culture media, 5×10^3 spores
[9] = pH 9 culture media, 5×10^6 spores

Q: With `Cc1cc(=O)oc2cc(O[C@H]3O[C@H](CO)[C@@H](O)[C@H](O)[C@H]3O)ccc12` [MUG, 4′-methylumbelliferyl-α-D-glucopyranoside] as the molecule, how does the “MEASURED FLUORESCENCE, RFU 70° C. 15 min” value ([1]; pH 6 culture media) read?
A: The value was 774.5 RFU.

Q: And the “MEASURED FLUORESCENCE, RFU 100° C. 15 + 15 min” value ([1]; pH 6 culture media)?
A: The value was 888 RFU.

Q: What about the “MEASURED FLUORESCENCE, RFU 100° C. 15 min” value ([1]; pH 6 culture media) of the same molecule?
A: Its value is 829 RFU.

Q: And the “MEASURED FLUORESCENCE, RFU RT 15 min” value ([1]; pH 6 culture media, no spores, 360 nm excitation/455 nm emission)?
A: The value was 751 RFU.

Q: What about the “MEASURED FLUORESCENCE, RFU 70° C. 15 min” value ([1]; pH 7 culture media) of the same molecule?
A: Its value is 809 RFU.

Q: What about the “MEASURED FLUORESCENCE, RFU 100° C. 15 + 15 min” value ([1]; pH 7 culture media) of the same molecule?
A: Its value is 893.5 RFU.

Q: And the “MEASURED FLUORESCENCE, RFU 100° C. 15 min” value ([1]; pH 7 culture media)?
A: Its value is 862 RFU.

Q: What about the “MEASURED FLUORESCENCE, RFU RT 15 min” value ([1]; pH 7 culture media) of the same molecule?
A: Its value is 671 RFU.

Q: What about the “MEASURED FLUORESCENCE, RFU 70° C. 15 min” value ([1]; pH 8 culture media) of the same molecule?
A: The value was 823.5 RFU.

Q: What about the “MEASURED FLUORESCENCE, RFU 100° C. 15 + 15 min” value ([1]; pH 8 culture media) of the same molecule?
A: The value was 939 RFU.

Q: What about the “MEASURED FLUORESCENCE, RFU 100° C. 15 min” value ([1]; pH 8 culture media) of the same molecule?
A: The value was 857.5 RFU.

Q: And the “MEASURED FLUORESCENCE, RFU RT 15 min” value ([1]; pH 8 culture media)?
A: The value was 788.5 RFU.

Q: What about the “MEASURED FLUORESCENCE, RFU 70° C. 15 min” value ([1]; pH 9 culture media) of the same molecule?
A: Its value is 862.5 RFU.

Q: And the “MEASURED FLUORESCENCE, RFU 100° C. 15 + 15 min” value ([1]; pH 9 culture media)?
A: Its value is 1099 RFU.

Q: What about the “MEASURED FLUORESCENCE, RFU 100° C. 15 min” value ([1]; pH 9 culture media) of the same molecule?
A: The value was 978.5 RFU.

Q: What about the “MEASURED FLUORESCENCE, RFU RT 15 min” value ([1]; pH 9 culture media) of the same molecule?
A: Its value is 694 RFU.

Q: What about the “MEASURED FLUORESCENCE, RFU +5 min” value [2, 3] of the same molecule?
A: The value was 585 RFU.

Q: And the “MEASURED FLUORESCENCE, RFU +30 min” value [2, 3]?
A: The value was 1210 RFU.

Q: What about the “MEASURED FLUORESCENCE, RFU 10 sec” value [2, 4] of the same molecule?
A: The value was 4600 RFU.

Q: What about the “MEASURED FLUORESCENCE, RFU +5 min” value [2, 4] of the same molecule?
A: Its value is 9209 RFU.

Q: And the “MEASURED FLUORESCENCE, RFU +10 min” value [2, 4]?
A: The value was 10250 RFU.

Q: What about the “MEASURED FLUORESCENCE, RFU +30 min” value [2, 4] of the same molecule?
A: Its value is 9996 RFU.

Q: And the “MEASURED FLUORESCENCE, RFU 10 sec” value ([2]; pH 7 culture media, 5×10^3 spores)?
A: The value was 676 RFU.

Q: What about the “MEASURED FLUORESCENCE, RFU 10 sec” value [2, 5] of the same molecule?
A: Its value is 10780 RFU.

Q: What about the “MEASURED FLUORESCENCE, RFU +5 min” value [2, 5] of the same molecule?
A: Its value is 22443 RFU.

Q: And the “MEASURED FLUORESCENCE, RFU +10 min” value [2, 5]?
A: The value was 26791 RFU.

Q: And the “MEASURED FLUORESCENCE, RFU +30 min” value [2, 5]?
A: Its value is 24911 RFU.

Q: What about the “MEASURED FLUORESCENCE, RFU 10 sec” value [2, 6] of the same molecule?
A: Its value is 704 RFU.

Q: What about the “MEASURED FLUORESCENCE, RFU +5 min” value [2, 6] of the same molecule?
A: The value was 661 RFU.

Q: And the “MEASURED FLUORESCENCE, RFU +10 min” value [2, 6]?
A: The value was 700 RFU.

Q: And the “MEASURED FLUORESCENCE, RFU 10 sec” value [2, 7]?
A: Its value is 12320 RFU.

Q: What about the “MEASURED FLUORESCENCE, RFU +5 min” value [2, 7] of the same molecule?
A: The value was 32993 RFU.

Q: And the “MEASURED FLUORESCENCE, RFU +10 min” value [2, 7]?
A: Its value is 51516 RFU.

Q: And the “MEASURED FLUORESCENCE, RFU +30 min” value [2, 7]?
A: Its value is 53517 RFU.

Q: What about the “MEASURED FLUORESCENCE, RFU 10 sec” value [2, 8] of the same molecule?
A: The value was 698 RFU.

Q: What about the “MEASURED FLUORESCENCE, RFU +5 min” value [2, 8] of the same molecule?
A: The value was 634 RFU.

Q: What about the “MEASURED FLUORESCENCE, RFU +10 min” value [2, 8] of the same molecule?
A: Its value is 621 RFU.

Q: And the “MEASURED FLUORESCENCE, RFU +30 min” value [2, 8]?
A: Its value is 1153 RFU.

Q: And the “MEASURED FLUORESCENCE, RFU 10 sec” value [2, 9]?
A: Its value is 5777 RFU.

Q: What about the “MEASURED FLUORESCENCE, RFU +5 min” value [2, 9] of the same molecule?
A: Its value is 19462 RFU.

Q: What about the “MEASURED FLUORESCENCE, RFU +10 min” value [2, 9] of the same molecule?
A: The value was 43381 RFU.

Q: And the “MEASURED FLUORESCENCE, RFU +30 min” value [2, 9]?
A: The value was 64660 RFU.
